What all share (format): cell-based, human
In experiment [1] the test system is Normal cells (PBMC, HUVEC, and WI-38). The experiment is described as follows: Cancer cell selective growth inhibition (cancer cells vs normal cells). The following applies: 72 hr MTS. The protocol:
[…] Peripheral blood mononuclear cells (PBMCs) were voluntarily collected from a healthy laboratory worker by standard sterile phlebotomy techniques and isolated using Vacutainer CPT collection tubes (BD Biosciences—Bedford, Mass.). PBMCs were isolated freshly for each experiment. All DMEM and RPMI-1640 media was supplemented with 10% FBS (Atlanta Biologicals—Lawrenceville, Ga.) and 100 U/mL penicillin and streptomycin (Invitrogen). HUVEC (Human umbilical vein endothelial cells) were cultured in EGM-2 media with supplements provided in the manufacturers BulletKit (Lonza—Walersville, Md.). All cells were maintained at 37° C. and in a 5% CO2 atmosphere.
Growth Inhibition Assays: HeLa, MDA-MB-231, PC-3M, WI-38, and HUVEC cells were plated at 5,000 cells per well in 96 well plates and allowed to attach for 20 hr (8 hr for HeLa). The media was removed and 198 μL of fresh media was added to each well. […] PBMCs were isolated and plated at 100,000 per well in 96 well plates with a volume of 197 μL. They were allowed to settle in the media for 20 hr, at which point 1 μL of 1 mg/mL phytohemagglutinin (Sigma—St. Loius Mo.) in PBS was added to stimulate proliferation (final concentration of 5 μg/mL). […] Cell proliferation was measured at t=0 (time at start of treatment) and t=72 hr using MTS AQueous non-radioactive proliferation assay (Promega—Madison, Wis.). This assay utilizes the metabolic conversion of yellow tetrazolium to a purple formazan by live cells and the color change is proportional to the number of cells. […] The absorbance at 490 nm in each well was read with a Spectramax 250 plate reader (Molecular Devices—Sunnyvale, Calif.). […] Data were fit to one site dose response curves in order to obtain specific growth inhibitory concentrations and the relative standard errors of the mean for these concentrations were calculated by the XLfit4 software. Statistical significance (p value) for the selectivity and all subsequent assays was determined with the two tailed homoscedastic Student's t-test. […]

Experiment [2] has as its system HeLa cells. The experiment is described as follows: Transwell invasion assay. The following applies: [GI99%], matrigel, 20 hr. The protocol: Transwell Invasion Assay: HeLa cells were plated at 250,000 per 35 mm well and allowed to attach for 8 hr. The cells were washed with PBS and then treated for 4 hr with the [GI99%] of each compound (or 1% DMSO—vehicle control) in serum free media to decrease the number of invading cells in the beginning of the experiment due to a preliminary lack of drug exposure. The cells were then trypsinized and counted by trypan blue exclusion with a hemacytometer (Sigma—St. Louis, Mo.). Eight micron pore size control well inserts for 12 well plates (BD Biosciences) were coated with 100 μL 1 mg/mL matrigel (Sigma—St. Louis, Mo.) and allowed to solidify at room temperature for 1 hr. The excess matrigel was aspirated and the inserts were gently washed with PBS. The cells were seeded at a density of 300,000 per insert well in a volume of 500 μL serum free media containing a derivative or vehicle. The inserts were then placed in wells containing 700 μL serum free media with the respective compound. After 20 hr the cells on the top of the membranes were gently removed with a cotton swab, the membranes then were fixed in methanol for 1 min, stained in Gills No. 3 Hematoxylin (Sigma—St. Louis, Mo.) for 5 min, rinsed in tap water, and allowed to dry overnight. The membranes were excised, mounted on slides, and the cells were counted under the 40× objective of a bright field microscope. The data are expressed as the average total number of invading cells counted in 20 fields of each membrane, as standardized to the vehicle control, from six experiments.
Effect of derivatives on the malignant phenotype—invasion assay: If A1-A9 have differential targets, DNA binding specificity, or downstream effects they may differentially alter the malignant behavior of cells. Also, anti-cancer compounds can be efficacious against tumors in other ways besides inhibiting growth and inducing death of cancer cells; they can also alter the behavior of malignant cells. Therefore, the ability of A1-A9 and amonafide to alter the invasive behavior of cancer cells in a transwell (also known as Boyden chamber) invasion assay was evaluated, which determines the ability of cells to migrate through a proteinacious gel. This behavior is considered to be representative of cancer cell invasion through the basement membrane of the primary tumor environment. In this assay, treated cells are seeded on to the top of the matrigel-coated porous membrane, allowed to invade through the proteinacious gel onto the underside of the membrane, and then counted.

In experiment [3] the test system is HeLa cells. The experiment is described as follows: Perinucleolar compartment (PNC) prevalence reduction. The following applies: for PNC prevalence reduction at [GI50%]: [GI50%] for 72 hr. As to the method: Perinucleolar Compartment (PNC) Reduction: HeLa cells (PNC prevalence ˜85%) were plated 5,000/well in glass bottom 96 well plates and allowed to attach for 8 hr. The cells were then treated with compounds at the respective [GI50%] for 72 hr and [GI99%] for 20 hr for each compound (total media volume was 200 μL/well with 1% DMSO). After treatment cells were immunofluorescently stained as previously described, but with a Texas Red labeled secondary antibody (Jackson) instead of a FITC labeled secondary antibody. PNC prevalence (% of non-apoptotic/non-mitotic cells with 1 or more PNCs) was determined by scoring >200 cells per well with fluorescent microscope (60× objective) and images were acquired with the digital camera and image acquisition software previously mentioned. Scale bar=10 μm. Data are expressed as the average PNC prevalence (% control) of three individual experiments.
The PNC is a unique structural marker that it is only found in malignantly transformed cancer cells, irrespective of tissue origin, and indicates cells that are capable of metastasis. […] Previous studies indicate that the PNC likely conveys a functional metastatic advantage to cancer cells. The PNC prevalence (% of cells with one or more PNC) in human breast cancer positively correlates with the progression of the disease and is always near 100% in distant metastases. […] The PNC prevalence reduction was determined for amonafide and A1-A9 at the respective [GI50%] and [GI99%] doses in HeLa cells, which have a high PNC prevalence of ˜85%.

Each structure is given as a SMILES string. Entries after “also recorded” stand apart in the source; their conditions may differ.

For the compound `CN(C)CCN1C(=O)c2cccc3c(N)ccc(c23)C1=O` [A1, 6-amino-2-[2-(dimethylamino)ethyl]-1H-benz[de]isoquinoline-1,3(2H)-dione], in experiment [1], the “cancer cell selective growth inhibition (selectivity)” value was “near identical to amonafide”. Moreover, the “invasive behavior (% invading cells vs vehicle)” value with HeLa cells [2] is “did not significantly alter the invasive behavior of HeLa cells compared to the control”. The “PNC prevalence reduction at [GI50%]” value in the experiment with HeLa cells [3] was “able effectively reduce the PNC; also recorded: can significantly reduce PNC prevalence”.
Regarding `CN(C)CCN1C(=O)c2cccc3cc(N)cc(c23)C1=O` [amonafide, reference compound], the “cancer cell selective growth inhibition (selectivity)” value in experiment [1] is given as “slightly more potent (but not with statistical significance) or equally potent at inhibiting the growth of cancer cells over normal cells”. Besides, the “invasive behavior (% invading cells vs vehicle)” value with HeLa cells [2] is given as “did not significantly alter the invasive behavior of HeLa cells compared to the control”. In addition, the “PNC prevalence reduction at [GI50%]” value in the experiment with HeLa cells [3] is “able effectively reduce the PNC; also recorded: can significantly reduce PNC prevalence”. Further, the “PNC prevalence reduction at [GI99%]” value with HeLa cells [3] ([GI99%] for 20 hr) is recorded as “able to greatly reduce the PNC prevalence”.
